Pest or weed control data for five molecules are collected here from US4335249A, “Herbicidal diphenyl ethers, sulfides, sulfoxides and sulfones” (Rohm and Haas Company, priority 1976, dated 1982).

Type in all cases: in vivo
Test [1] relates to morningglory (Ipomoca spp.). In words: Postemergence herbicidal activity, morningglory. Conditions: Ipomoea, post-emergence, 336 h; for pest or weed control at 2241.7 g/ha: 2 lb/A. How it is done: (§1) Using the procedure described below, compounds of the invention are evaluated for control of several of the following plant species:
(§2) The following est procedure is employed. Seeds of selected crops and weeds are planted in soil in flats. For preemergence tests, the flats are treated with the test compound immediately after the planting. For postemergence tests, the seeds are allowed to germinate, and after two weeks the flats are treated with the test compound. The compound to be evaluated is dissolved in acetone, diluted with water, and sprayed over the flats using a carrier volume equivalent to 50 gallons per acre at the rate of application (pounds per acre, lb/A.) specified in the tables. About two weeks after the application of the test compound, the state of growth of the plants is observed and the phytotoxic effect of the compound is evaluated. Tables III and IV give the average percent control achieved by test compounds in terms of the percent of the plants which are killed by the compounds.

The subject of test [2] is barnyardgrass (Echinochloa crusgalli). Briefly: Preemergence herbicidal activity, barnyardgrass. Conditions: Echinochloa crus-galli, pre-emergence, 336 h, Pre; for pest or weed control at 2241.7 g/ha: 2 lb/A. On the procedure: as §1
(§3) The following est procedure is employed. Seeds of selected crops and weeds are planted in soil in flats. For preemergence tests, the flats are treated with the test compound immediately after the planting. For postemergence tests, the seeds are allowed to germinate, and after two weeks the flats are treated with the test compound. The compound to be evaluated is dissolved in acetone, diluted with water, and sprayed over the flats using a carrier volume equivalent to 50 gallons per acre at the rate of application (pounds per acre, lb/A.) specified in the tables.

In test [3] the test system is marigold (Tagetes spp.). In words: Postemergence herbicidal activity, marigold. To be noted: post-emergence, 336 h; for pest or weed control at 2241.7 g/ha: 2 lb/A. How it is done: as §1, §2
Test [4] concerns marigold (Tagetes spp.). In words: Preemergence herbicidal activity, marigold. Conditions: pre-emergence, 336 h; for pest or weed control at 2241.7 g/ha: 2 lb/A. On the procedure:
as §1, §2

Test [5] concerns cocklebur (Xanthium pensylvanicum). In words: Preemergence herbicidal activity, cocklebur. To be noted: Xanthium strumarium, pre-emergence, 336 h; for pest or weed control at 2241.7 g/ha: 2 lb/A. On the procedure:
as §1, §2

The test system of test [6] is downybrome (Bromus tectorum). Briefly: Preemergence herbicidal activity, downybrome. Conditions: Bromus tectorum, pre-emergence, 336 h, Pre; for pest or weed control at 2241.7 g/ha: 2 lb/A. On the procedure:
as §1, §2

In test [7] the test system is downybrome (Bromus tectorum). In words: Postemergence herbicidal activity, downybrome. To be noted: Bromus tectorum, post-emergence, 336 h, Post; for pest or weed control at 2241.7 g/ha: 2 lb/A. On the procedure:
as §1, §2

Test [8] has as its system velvetleaf (Abutilon theophrasti). Briefly: Preemergence herbicidal activity, velvetleaf. Conditions: Abutilon theophrasti, pre-emergence, 336 h, Pre; for pest or weed control at 2241.7 g/ha: 2 lb/A. How it is done: as §1, §2
Test [9] relates to foxtail (Setaria spp.). Briefly: Preemergence herbicidal activity, foxtail. To be noted: Setaria, pre-emergence, 336 h, Pre; for pest or weed control at 2241.7 g/ha: 2 lb/A. How it is done:
as §1, §2

Test [10] has as its system barnyardgrass (Echinochloa crusgalli). In words: Postemergence herbicidal activity, barnyardgrass. Conditions: Echinochloa crus-galli, post-emergence, 336 h, Post; for pest or weed control at 2241.7 g/ha: 2 lb/A. On the procedure:
as §1, §3

Test [11] has as its system wild oats (Avena fatua). Briefly: Postemergence herbicidal activity, wild oats. To be noted: Avena fatua, post-emergence, 336 h, Post, read-out: % control, Wild oat; for pest or weed control at 2241.7 g/ha: 2 lb/A. On the procedure:
as §1, §2

Test [12] concerns velvetleaf (Abutilon theophrasti). In words: Postemergence herbicidal activity, velvetleaf. To be noted: Abutilon theophrasti, post-emergence, 336 h; for pest or weed control at 2241.7 g/ha: 2 lb/A. How it is done:
as §1, §3

The subject of test [13] is tomato (Lycopersicon esculentum). In words: Postemergence herbicidal activity, tomato. Conditions: Solanum lycopersicum, post-emergence, 336 h, Post; for pest or weed control at 2241.7 g/ha: 2 lb/A. On the procedure: as §1, §2
Test [14] has as its system yellow nutsedge (Cyperus esculentus). In words: Postemergence herbicidal activity, yellow nutsedge. To be noted: Cyperus, post-emergence, 336 h; for pest or weed control at 2241.7 g/ha: 2 lb/A. On the procedure: as §1, §2
The test system of test [15] is tomato (Lycopersicon esculentum). In words: Preemergence herbicidal activity, tomato. Conditions: Solanum lycopersicum, pre-emergence, 336 h, Pre; for pest or weed control at 2241.7 g/ha: 2 lb/A. On the procedure:
as §1, §2

The test system of test [16] is morningglory (Ipomoca spp.). Briefly: Preemergence herbicidal activity, morningglory. To be noted: Ipomoea, pre-emergence, 336 h; for pest or weed control at 2241.7 g/ha: 2 lb/A. How it is done:
as §1, §2

The subject of test [17] is cocklebur (Xanthium pensylvanicum). Briefly: Postemergence herbicidal activity, cocklebur. Conditions: Xanthium strumarium, post-emergence, 336 h; for pest or weed control at 2241.7 g/ha: 2 lb/A. On the procedure: as §1, §2
For test [18], the system named is wild oats (Avena fatua). Briefly: Preemergence herbicidal activity, wild oats. Conditions: Avena fatua, pre-emergence, 336 h, Pre, read-out: % control, Wild oat; for pest or weed control at 2241.7 g/ha: 2 lb/A. How it is done: as §1, §2
For test [19], the system named is yellow nutsedge (Cyperus esculentus). In words: Preemergence herbicidal activity, yellow nutsedge. Conditions: Cyperus, pre-emergence, 336 h; for pest or weed control at 2241.7 g/ha: 2 lb/A. On the procedure: as §1, §2
Test [20] relates to foxtail (Setaria spp.). Briefly: Postemergence herbicidal activity, foxtail. To be noted: Setaria, post-emergence, 336 h, Post; for pest or weed control at 2241.7 g/ha: 2 lb/A. On the procedure: as §1, §2

In the case of `CCOC(=O)C(C)Oc1ccc(Sc2ccc(C(F)(F)F)cc2[N+](=O)[O-])cc1` (stereo not shown) [Example 48, Ethyl 2-[4-(2-nitro-4-trifluoromethylphenylthio)phenoxy] propionate], the pest or weed control at 2241.7 g/ha in test [1] is 0%; in [2], 95%; in the test on marigold (Tagetes spp.) [3], 0%; with marigold (Tagetes spp.) [4], 0%; in test [5] it was 0%; in test [6], 30%. The pest or weed control at 2241.7 g/ha in test [7] is 0%; in test [8], 0%; with foxtail (Setaria spp.) [9] it was 95%; in test [10], 60%; in the test with wild oats (Avena fatua) [11] it was 80%; in [12], 0%. The pest or weed control at 2241.7 g/ha (in [13]; in test [14]; in test [15]; in [16]; in test [17]; in the test with wild oats (Avena fatua) [18]) was 0% in each case. The pest or weed control at 2241.7 g/ha turned out to be 0% in test [19] and 20% in the test on foxtail (Setaria spp.) [20].
As to `CCOC(=O)C(C)Oc1ccc([S+]([O-])c2ccc(C(F)(F)F)cc2Cl)cc1` (stereo not shown) [Example 42], the pest or weed control at 4483.4 g/ha in [1] (4 lb/A) is 0%; in [2] (4 lb/A), 95%; in the test with marigold (Tagetes spp.) [3] (4 lb/A) it was 0%; with marigold (Tagetes spp.) [4] (4 lb/A), 0%; in test [5] (4 lb/A), 0%; in [6] (4 lb/A), 40%. Moreover, the pest or weed control at 4483.4 g/ha came out at 0% in test [7] (4 lb/A); 40% in test [8] (4 lb/A); 99% in the test on foxtail (Setaria spp.) [9] (4 lb/A); 0% in test [10] (4 lb/A); 0% in the test with wild oats (Avena fatua) [11] (4 lb/A); 0% in [12] (4 lb/A). Moreover, the pest or weed control at 4483.4 g/ha in test [13] (4 lb/A) was 0%; in test [14] (4 lb/A), 0%; in [15] (4 lb/A), 0%; in test [16] (4 lb/A) it was 0%; in test [17] (4 lb/A), 0%; with wild oats (Avena fatua) [18] (4 lb/A) it was 20%. Also, the pest or weed control at 4483.4 g/ha (in test [19] (4 lb/A); in the test with foxtail (Setaria spp.) [20] (4 lb/A)) was 0% in each case.
As for `CCOC(=O)CCC(C)Oc1ccc(Oc2ccc(C(F)(F)F)cc2Cl)cc1` (stereo not shown) [Example 38], the pest or weed control at 2241.7 g/ha stood at 0% in [1]; 90% in test [2]; 0% in the test on marigold (Tagetes spp.) [3]; 0% in the test on marigold (Tagetes spp.) [4]; 0% in test [5]; 0% in test [6]. Further, the pest or weed control at 2241.7 g/ha is 90% in [7]; 0% in test [8]; 100% in the test on foxtail (Setaria spp.) [9]; 100% in test [10]; 99% with wild oats (Avena fatua) [11]; 0% in [12]. Also, the pest or weed control at 2241.7 g/ha (in test [13]; in test [14]; in test [15]; in [16]; in [17]; in the test on wild oats (Avena fatua) [18]) was 0% each time. Moreover, the pest or weed control at 2241.7 g/ha in test [19] worked out at 0%; in the test with foxtail (Setaria spp.) [20], 100%.
Take `CCOC(=O)C(C)Oc1ccc(Oc2ccc(C(F)(F)F)cc2Cl)cc1OC` (stereo not shown) [Example 8, Ethyl 2-[4-(2-chloro-4-trifluoromethylphenoxy)-2-methoxyphenoxy] propionate]: the pest or weed control at 2241.7 g/ha (in test [1]; in [2]; in the test on marigold (Tagetes spp.) [3]; in the test with marigold (Tagetes spp.) [4]; in [5]; in test [6]) was 0% in each case. Also, the pest or weed control at 2241.7 g/ha in test [7] is 0%; in test [8] it was 0%; with foxtail (Setaria spp.) [9], 99%; in [10] it was 0%; with wild oats (Avena fatua) [11], 0%; in [12], 0%. In addition, the pest or weed control at 2241.7 g/ha (in [13]; in test [14]; in test [15]; in test [16]; in test [17]; in the test with wild oats (Avena fatua) [18]) was 0% throughout. Also, the pest or weed control at 2241.7 g/ha (in test [19]; in the test with foxtail (Setaria spp.) [20]) was 0% in each case.
Consider `COCCOC(=O)C(C)Oc1ccc(Oc2ccc(C(F)(F)F)cc2Cl)cc1` (stereo not shown) [Example 25], for which the pest or weed control at 2241.7 g/ha in [1] came to 40%; in test [2] it was 100%; in the test with marigold (Tagetes spp.) [3], 30%; in the test with marigold (Tagetes spp.) [4] it was 0%; in [5], 0%; in test [6] it was 95%. For the same molecule, the pest or weed control at 2241.7 g/ha in test [7] amounted to 80%; in [8], 0%; in the test with foxtail (Setaria spp.) [9] it was 100%; in test [10], 100%; in the test on wild oats (Avena fatua) [11], 100%; in [12], 60%. Also, the pest or weed control at 2241.7 g/ha was determined as 95% in [13]; 40% in [14]; 0% in test [15]; 0% in test [16]; 20% in test [17]; 70% with wild oats (Avena fatua) [18]. In addition, the pest or weed control at 2241.7 g/ha in [19] is 30%; with foxtail (Setaria spp.) [20], 100%.
